In general, IC50 refers to the concentration that inhibits the measured activity by half. Low readings indicate greater potency, high ones weaker potency.

The subject of one test is L1210. Briefly: The compound was tested for cytotoxic activity using standard L1210 cell based cytotoxicity assay. In kind it is functional. The conditions noted are these: Mus musculus.
The compound `Nc1ccc2c(c1)cc1c(=O)n3c(cc4cc(N)ccc43)c(=O)n12` had an IC50 of 30 µM. `CN(C)CCCC(=O)Nc1ccc(C(=O)Nc2ccc3c(c2)cc2c(=O)n4c(cc5cc(NC(=O)c6ccc(NC(=O)CCCN(C)C)cc6)ccc54)c(=O)n23)cc1`: the IC50 worked out at 7 µM. Same read-out and setting: the figure for `CN(C)CCCC(=O)Nc1ccc2c(c1)cc1c(=O)n3c(cc4cc(NC(=O)CCCN(C)C)ccc43)c(=O)n12` is 0.034 µM. The same measure, in the same setting: the figure for `CN(C)CCCC(=O)Nc1csc(C(=O)Nc2ccc3c(c2)cc2c(=O)n4c(cc5cc(NC(=O)c6csc(NC(=O)CCCN(C)C)n6)ccc54)c(=O)n23)n1` is 4 µM; for `CC(C)(C)OC(=O)Nc1ccc2c(c1)cc1c(=O)n3c(cc4cc(NC(=O)OC(C)(C)C)ccc43)c(=O)n12` it is 29 µM.

For another test, the system named is Nucleic Acid. Briefly: Compound was evaluated for DNA (poly[dA]-poly[dT]) binding affinity. In kind it is nucleic-acid assay.
Details: not given
Turning to `CN(C)CCCC(=O)Nc1ccc2c(c1)cc1c(=O)n3c(cc4cc(NC(=O)CCCN(C)C)ccc43)c(=O)n12`, the K was 203000.
